Entries after “also recorded” stand apart in the source; their conditions may differ. Where no end group is shown, it is not given here.
Columns and labels:
CPAF = CPAF (Chlamydia trachomatis serovar D, UniProt O84866); assay: HPLC assay of CPAF cleavage of Abz-tagged vimentin-derived peptide; type: biochemical
[1] = test system: Chlamydia-infected HeLa cells; assay: Death of infected HeLa cells by flow cytometry of PI-stained cells; type: cell-based; conditions: anti-CPAF peptide at 12 hpi, with/without 40μM Z-VAD-FMK at 3 hpi
recombinant CPAF = conditions: ~40 ng CPAF, 48μg GST-tagged Chlamydia proteins, 37°C, 20 min; Coomassie
uninfected cells = assay: Toxicity in uninfected cells; type: cell-based; conditions: data not shown
proteasome = assay: Proteasome function in uninfected cells; type: cell-based; conditions: data not shown

Chain of CPAF (O84866 276-601): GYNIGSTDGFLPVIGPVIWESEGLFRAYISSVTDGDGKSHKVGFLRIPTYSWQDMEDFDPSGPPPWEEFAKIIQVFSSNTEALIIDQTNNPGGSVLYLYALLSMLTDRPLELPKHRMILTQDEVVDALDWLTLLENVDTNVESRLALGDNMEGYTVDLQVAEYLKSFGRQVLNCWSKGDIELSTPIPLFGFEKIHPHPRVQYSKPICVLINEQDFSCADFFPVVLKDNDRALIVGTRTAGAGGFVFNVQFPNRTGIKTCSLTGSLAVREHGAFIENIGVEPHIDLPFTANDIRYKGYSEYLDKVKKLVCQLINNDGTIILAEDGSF
Chain of CPAF (O84866 24-234): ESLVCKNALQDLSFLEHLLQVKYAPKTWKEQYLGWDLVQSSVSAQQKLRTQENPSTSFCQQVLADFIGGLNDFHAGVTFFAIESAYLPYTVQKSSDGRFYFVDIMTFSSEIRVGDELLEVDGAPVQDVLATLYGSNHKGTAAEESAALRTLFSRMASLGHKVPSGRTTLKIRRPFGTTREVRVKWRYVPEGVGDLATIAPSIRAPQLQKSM

Compound: CC(=O)N[C@@H](CSC(=O)[C@]1([C@@H](O)C(C)C)NC(=O)[C@H](C)[C@@H]1O)C(=O)O [Lactacystin, lactacystin, reference compound]
- IC50 (CPAF): 10 µM

Compound: NFALSHFRLPLSTYKEMPYVSHWAGRRRRRRRRR [scrambled control peptide]
- death of infected cells (PI staining) [1]: PI staining was not seen
- inhibition of cleavage of GST-tagged substrates by recombinant CPAF (recombinant CPAF): but not a scrambled control peptide; also recorded: but not the scrambled control peptide

Compound: SLFYSPMVPHFWAELRNHYATSGLKRRRRRRRRR [anti-CPAF peptide]
- IC50 (CPAF): 0.05 µM
- toxicity in uninfected cells (uninfected cells): did not induce any obvious toxicity
- alteration of proteasome function in uninfected cells (proteasome): did not induce any obvious toxicity or alter proteasome function in uninfected cells
